Like-named read-outs stand apart in the source and are kept apart here. Marks after values point to notes of the source that are not given here.
Experiments:
[1] = system: Phytophthora infestans; format: in vivo; details: tomato, preventive spray, 100 ppm of active ingredient, evaluated 7 days after inoculation
[2] = system: Plasmopara viticola; assay: Plasmopara test (grapevines)/preventive; format: in vivo; details: preventive spray, 10 ppm of active ingredient, evaluated 6 days after inoculation
Description: Solvent: 24.5 parts by weight of acetone • 24.5 parts by weight of dimethylacetamide
Emulsifier: 1 part by weight of alkylaryl polyglycol ether
To produce a suitable preparation of active compound, 1 part by weight of active compound is mixed with the stated amounts of solvent and emulsifier, and the concentrate is diluted with water to the desired concentration.
To test for preventive activity, young plants are sprayed with the preparation of active compound at the stated rate of application. After the spray coating has dried on, the plants are inoculated with an aqueous spore suspension of Plasmopara viticola and then remain for 1 day in an incubation cabinet at approximately 20° C. and a relative atmospheric humidity of 100%. The plant is subsequently placed for 4 days in a greenhouse at approximately 21° C. and a relative atmospheric humidity of approximately 90%. The plants are then misted and placed for 1 day in an incubation cabinet.
The test is evaluated 6 days after the inoculation. 0% means an efficacy which corresponds to that of the untreated control, while an efficacy of 100% means that no disease is observed.

[3] = pH 2.7
[4] = system: Phytophthora infestans; format: in vivo; details: tomato plants, spray, 500 ppm, grading 5 days after contamination
[5] = system: Puccinia recondita; assay: In vivo test on Puccinia recondita (brown rust); details: wheat plants, spray, 500 ppm, grading 10 days after contamination
Description: The active ingredients tested are prepared by homogenization in a mixture of acetone/tween/DMSO, then diluted with water to obtain the desired active material.
Wheat plants (Scipion variety) sown on 50/50 peat soil-pozzolana substrate in starter cups and grown at 22° C. (12 h)/20° C. (12 h), are treated at the 1-leaf stage (10 cm tall) by spraying with the aqueous suspension described above.
Plants, used as controls, are treated with an aqueous solution not containing the active material. After 24 hours, the plants are contaminated by spraying the leaves with an aqueous suspension of Puccinia recondite spores (100.000 spores per ml). The spores are collected from a 10-day-old contaminated wheat and are suspended in water containing 2.5 ml/l of tween 80 10%. The contaminated wheat plants are incubated for 24 hours at 20° C. and at 100% relative humidity, and then for 10 days at 20° C. and at 70% relative humidity. Grading is carried out 10 days after the contamination, in comparison with the control plants.
Under these conditions, good (at least 70%) or total protection is observed at a dose of 500 ppm with the following compounds: […]

| Structure (SMILES) | Eff. % [1] | Eff. % [2] | LogP [3] | Eff. % [4] | Eff. % [5] |
| --- | --- | --- | --- | --- | --- |
| Cn1c(/C(=N\OCc2cccc(NC(=O)OCCC3CCCCC3)n2)c2ccccc2)noc1=O [Example 5] | 95% | 88% | 5.27 [a] |  |  |
| Cn1c(/C(=N\OCc2cccc(NC(=O)OCCc3ccccc3)n2)c2ccccc2)noc1=O [Example 7] | 95% | 96% | 4.15 [a] |  |  |
| CCCCCCC(=O)Nc1cccc(CO/N=C(/c2ccccc2)c2noc(=O)n2C)n1 [Example 8] | 98% | 99% | 4.3 [a] | 100% |  |
| CCCCCCC(=O)Nc1nc(CO/N=C(/c2ccccc2)c2noc(=O)n2C)cs1 [Example 9] | 95% | 94% | 4.13 [a] |  |  |
| Cn1c(/C(=N\OCc2csc(NC(=O)C3COc4ccccc4O3)n2)c2ccccc2)noc1=O (stereo not drawn) [Example 10] | 95% | 96% | 3.62 [a] |  |  |
| Cn1c(/C(=N\OCc2csc(NC(=O)C3CCc4ccccc4O3)n2)c2ccccc2)noc1=O (stereo not drawn) [Example 11] | 100% | 98% | 3.94 [a] |  |  |
| CCCCCOC(=O)Nc1nc(CO/N=C(/c2ccccc2)c2noc(=O)n2C)cs1 [Example 12] | 95% | 94% | 4.11 [a] |  |  |
| CCCCC(=O)Nc1nc(CO/N=C(/c2ccccc2)c2noc(=O)n2C)cs1 [Example 13] | 95% | 93% | 3.37 [a] |  |  |
| Cn1c(/C(=N\OCc2cccc(NC(=O)OCC3CCCC3)n2)c2ccccc2)noc1=O [Example 16] | 98% | 94% | 4.53 [a] |  |  |
| Cn1c(/C(=N\OCc2cccc(NC(=O)c3cccc(F)c3)n2)c2ccccc2)noc1=O [Example 17] | 98% | 94% | 3.69 [a] |  |  |
| Cn1c(/C(=N\OCc2csc(NC(=O)c3cccc(F)c3)n2)c2ccccc2)noc1=O [Example 20] | 95% | 94% | 3.6 [a] |  |  |
| CCCCCOC(=O)Nc1cccc(CO/N=C(\c2ccccc2)c2noc(=O)n2C)n1 [Example 26] | 93% |  | 4.24 [a] |  |  |
| C#CCCOC(=O)Nc1cccc(CO/N=C(/c2ccccc2)c2noc(=O)n2C(F)F)n1 [Example 58] | 80% |  | 3.64 [a] |  |  |
| Cn1c(/C(=N\OCc2cccc(NC(=O)CCCl)n2)c2ccccc2)noc1=O [Example 63] |  |  | 3.02 [a] | 100% | 75% |
| C#CCCOC(=O)Nc1cccc(CO/N=C(/c2ccccc2)c2noc(=O)n2CC#N)n1 [Example 70] | 84% |  | 3.31 [a] |  |  |
| Cn1c(/C(=N\OCc2cccc(NC(=O)CCCCBr)n2)c2ccccc2)noc1=O [Example 73] |  |  | 3.59 [a] | 100% | 81% |
| Cn1c(/C(=N\OCc2cccc(NCCc3ccccc3)n2)c2ccccc2)noc1=O [Example 74] | 95% | 94% | 2.78 [a] |  |  |
| C#CCCOC(=O)Nc1cccc(CO/N=C(/c2ccccc2)c2noc(=O)n2CC#C)n1 [Example 86] | 90% |  | 3.46 [a] |  |  |
| CCn1c(/C(=N\OCc2cccc(NC(=O)Cc3ccc(OC)cc3)n2)c2ccccc2)noc1=O [Example 88] |  |  | 3.7 [a] | 98% | 78% |
| C#CCCOC(=O)Nc1cccc(CO/N=C(/c2ccccc2)c2noc(=O)n2CC)n1 [Example 104] | 93% | 100% | 3.51 [a] |  |  |
| COc1cccc(/C(=N/OCc2cccc(NC(=O)OC(C)(C)C)n2)c2noc(=O)n2C)c1 [Example 131] |  |  | 3.99 [a] | 100% | 81% |
| Cn1c(/C(=N\OCc2cccc(NC/C=N/OCc3ccccc3)n2)c2ccccc2)noc1=O [Example 136] | 95% | 75% | 3.35 [a] |  |  |

From US9090600B2, “Fungicidal 4-substituted-3-{phenyl[(heterocyclylmethoxy)imino]methyl}-1,2,4-oxadizol-5(4H)-one derivatives” (BAYER INTELLECTUAL PROPERTY GMBH, priority 2011, dated 2015)
